Laboratory results as given in patent US20250332139A1, “PS[…] AND THEIR USE FOR TREATING […] AND NE[…] DISORDERS” (Transcend Therapeutics, Inc., priority 2021, published 2025).

Tests used:
168 GPCRs [1] = biological target: 168 GPCRs (Homo sapiens, UniProt Q9UBY5); experiment: β-arrestin GPCR screen (PathHunter/GPCRmax), antagonist mode; conditions: EDG7; Antagonist; 1 uM
168 GPCRs [2] = biological target: 168 GPCRs (Homo sapiens, UniProt P21918); experiment: as above; conditions: DRD5; Antagonist; 1 uM
Chain of 168 GPCRs (Homo sapiens, UniProt P21918) (P21918 whole entry): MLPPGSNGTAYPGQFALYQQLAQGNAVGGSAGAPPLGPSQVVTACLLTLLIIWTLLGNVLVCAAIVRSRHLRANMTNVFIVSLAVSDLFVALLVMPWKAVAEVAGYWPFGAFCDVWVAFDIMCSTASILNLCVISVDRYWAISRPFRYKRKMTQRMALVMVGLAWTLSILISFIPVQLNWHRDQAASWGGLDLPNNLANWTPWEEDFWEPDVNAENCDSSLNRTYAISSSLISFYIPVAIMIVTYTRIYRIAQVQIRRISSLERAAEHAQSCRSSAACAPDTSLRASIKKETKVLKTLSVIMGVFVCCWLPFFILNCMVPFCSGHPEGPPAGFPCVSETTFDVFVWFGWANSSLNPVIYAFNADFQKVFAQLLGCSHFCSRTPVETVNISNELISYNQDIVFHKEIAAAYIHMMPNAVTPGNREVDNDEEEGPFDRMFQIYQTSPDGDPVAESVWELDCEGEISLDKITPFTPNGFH

168 GPCRs [3] = biological target: 168 GPCRs (Homo sapiens, UniProt Q8TCW9); experiment: as above; conditions: PROKR1; Antagonist; 1 uM
Chain of 168 GPCRs (Homo sapiens, UniProt Q8TCW9) (Q8TCW9 whole entry): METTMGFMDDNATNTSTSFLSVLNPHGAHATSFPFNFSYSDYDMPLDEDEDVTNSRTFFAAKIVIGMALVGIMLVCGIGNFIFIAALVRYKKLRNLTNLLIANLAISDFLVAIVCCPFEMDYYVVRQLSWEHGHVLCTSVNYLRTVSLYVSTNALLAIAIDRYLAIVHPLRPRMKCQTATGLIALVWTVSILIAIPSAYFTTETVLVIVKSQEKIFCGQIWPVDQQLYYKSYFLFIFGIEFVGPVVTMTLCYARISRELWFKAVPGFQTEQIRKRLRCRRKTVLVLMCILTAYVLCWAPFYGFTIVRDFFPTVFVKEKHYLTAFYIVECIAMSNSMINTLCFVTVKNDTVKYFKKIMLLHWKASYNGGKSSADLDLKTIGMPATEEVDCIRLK

168 GPCRs [4] = biological target: 168 GPCRs (Homo sapiens, UniProt Q15077); experiment: as above; conditions: P2RY6; Antagonist; 1 uM
Chain of 168 GPCRs (Homo sapiens, UniProt Q15077) (Q15077 whole entry): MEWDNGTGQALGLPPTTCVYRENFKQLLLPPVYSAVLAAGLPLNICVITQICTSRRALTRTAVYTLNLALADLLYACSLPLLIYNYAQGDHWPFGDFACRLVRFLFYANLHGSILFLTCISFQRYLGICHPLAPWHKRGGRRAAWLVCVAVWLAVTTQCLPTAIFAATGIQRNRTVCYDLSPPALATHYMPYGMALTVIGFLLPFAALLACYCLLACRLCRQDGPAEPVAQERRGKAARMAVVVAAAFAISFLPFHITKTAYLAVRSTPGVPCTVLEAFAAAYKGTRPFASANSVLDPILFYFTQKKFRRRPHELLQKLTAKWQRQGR

168 GPCRs [5] = biological target: 168 GPCRs (Homo sapiens, UniProt P08172); experiment: as above; conditions: CHRM2; Antagonist; 1 uM
Chain of 168 GPCRs (Homo sapiens, UniProt P08172) (P08172 whole entry): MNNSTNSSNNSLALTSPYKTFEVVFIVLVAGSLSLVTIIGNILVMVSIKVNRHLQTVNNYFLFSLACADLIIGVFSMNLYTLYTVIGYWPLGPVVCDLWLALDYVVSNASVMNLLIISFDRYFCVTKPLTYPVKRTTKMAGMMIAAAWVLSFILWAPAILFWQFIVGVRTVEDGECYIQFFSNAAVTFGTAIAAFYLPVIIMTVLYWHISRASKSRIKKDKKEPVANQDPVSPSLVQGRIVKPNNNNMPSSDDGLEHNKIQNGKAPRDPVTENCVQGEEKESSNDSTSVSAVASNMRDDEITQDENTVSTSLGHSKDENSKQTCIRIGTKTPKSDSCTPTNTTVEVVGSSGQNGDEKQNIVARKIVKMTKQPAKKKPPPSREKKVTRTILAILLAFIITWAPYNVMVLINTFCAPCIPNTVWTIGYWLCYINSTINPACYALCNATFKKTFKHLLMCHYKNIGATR

168 GPCRs [6] = biological target: 168 GPCRs (Homo sapiens, UniProt P43115); experiment: as above
Chain of 168 GPCRs (Homo sapiens, UniProt P43115) (P43115 whole entry): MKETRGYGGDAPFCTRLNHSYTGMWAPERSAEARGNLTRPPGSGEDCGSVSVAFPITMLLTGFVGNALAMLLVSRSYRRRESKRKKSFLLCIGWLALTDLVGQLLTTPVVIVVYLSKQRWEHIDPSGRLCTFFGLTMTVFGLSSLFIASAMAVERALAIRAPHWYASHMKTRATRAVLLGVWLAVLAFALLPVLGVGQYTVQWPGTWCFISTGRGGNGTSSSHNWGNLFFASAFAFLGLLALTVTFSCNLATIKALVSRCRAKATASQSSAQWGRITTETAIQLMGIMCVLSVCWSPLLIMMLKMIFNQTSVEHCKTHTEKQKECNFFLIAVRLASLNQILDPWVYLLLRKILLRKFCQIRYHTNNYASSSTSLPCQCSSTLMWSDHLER

participants with PTSD = experiment: IMPACT-1 open-label study (Part A); type: in vivo, human; set-up: reduction in Anxiety Sub-Scale of MADRS: concentration or dose not given beside the values
Description: The purpose of this pilot study is to evaluate the safety, tolerability, and efficacy of methylone in adult participants with PTSD. The study is conducted in two parts. Part A is open-label enrolling up to 15 evaluable participants with PTSD. After completion of Part A, enrollment will begin for Part B, which is double-blind, placebo-controlled and enrolling up to 64 evaluable participants with PTSD.
Brief Summary: This is a two-part study to assess methylone for the management of the symptoms of PTSD. Part A is an open-label, non-controlled assessment in up to 15 evaluable participants with PTSD to assess early safety and efficacy and to confirm procedures included in the blinded portion (Part B) of the study. After completion of Part A, enrollment for Part B will begin in up to 64 participants. Part B is identical to Part A with the exception of the inclusion of a placebo arm in Part B.
For each participant in Parts A and B, the study consists of: • Screening Period (Day-28 to Day-4): Informed consent, eligibility assessment, and enrolment of eligible participants. • Baseline/Preparatory Session (Day-3 to Day-1): Baseline assessments, confirmation of eligibility, and a preparatory psychoeducation session leading to enrolment confirmation. • Treatment Period (Day 1 to Day 24): Four weekly dose sessions, with associated remote sessions. The dose sessions last at least 8 hours, or until all effects (physical and psychological) have resolved (whichever is longer). Each dose session is followed by a safety phone call 1 day after dosing and efficacy assessments 2 days after dosing. Each dosing period is video recorded for quality and training purposes. The videos may be reviewed to ensure the Mentor is adhering to the Mentor training. • Follow-Up Period (Day 29 to Day 64): Follow-Up visits for safety and efficacy occur at 1, 2, 3 and 6 weeks post-final study drug administration. In addition, there are Mentor-Led Reflection Sessions 1, 2 and 3 weeks post-final study drug administration. Participants are contacted via telephone on Day 57 (±2 days) for Follow-Up. • Discontinuations: Participants who discontinue prematurely are asked to return for an extra visit to duplicate the 6-week end-of-study (EOS) visit.
Each dose was given as an initial dose, followed by a second dose 90 minutes later. During the dosing session, participants were accompanied by a trained Mentor who provided non-directive support. After the 4-week treatment period, participants attended follow-up visits at 1, 2, 3, and 6 weeks following the last dose. Safety was assessed via standard measures including adverse events. PTSD symptoms were assessed via Clinician-Administered PTSD Scale for DSM-5 (CAPS-5), depressive symptoms were assessed via Montgomery-Åsberg Depression Rating Scale (MADRS). Anti-anxiety efficacy was evaluated using the Anxiety Sub-Scale of MADRS, namely, questions (Items 3, 4, 5, 6) that address four anxiety items (inner tension, reduced sleep, reduced appetite, concentration difficulties) Changes from baseline were analyzed using a paired t-test p-values.
Methods: The IMPACT-1 study is a multi-center, two-part clinical trial. Part A has completed and was an open-label evaluation involving 14 participants with PTSD. Eligible participants are adults with severe PTSD (CAPS-5 ≥35) who had failed at least 1 prior treatment (pharmacotherapy and/or psychotherapy) for PTSD. […] Throughout each dosing session, participants were provided non-directive psychological support by a trained mental health practitioner. Following the 4-week treatment period, participants were followed for an additional 6 weeks to evaluate the durability of the therapeutic effect. PTSD symptom improvement was evaluated on the CAPS-5. Functioning was assessed via the 3 domains (school/work, family life, social life) of the Sheehan Disability Scale (SDS). Global improvement was measured by the CGI-I. Safety was assessed by monitoring adverse events, vital signs, and C-SSRS. […]

rats = experiment: Open field test (OFT); type: in vivo, rat; conditions: for time spent in the center of the open field: methylone single dose IP 30 min before test (5 or 15 mg/kg in b361; 5-30 mg/kg in b50)
Description: This behavioral assay, also widely used as an anxiety paradigm, capitalizes on a rodent's innate fear of brightly lit open spaces, which are assumed to induce fear or anxiety. Rodents spend more time hugging the walls of the open field during the test, and these effects correlate to underlying brain regions and mechanisms.
Method: Consecutive beam breaks and/or video-tracking of time spent in the center versus periphery of the open field are measured. Also measured are parameters such as distance traveled and ambulatory activity (horizontal and vertical) for the duration of the test session.
The open field test (OFT) capitalizes on a rodent's innate fear of open spaces to assess anxiety-like behavior. More time spent in the center of an open field reflects an anxiolytic (anti-anxiety) effect.
To investigate whether MBDB has an anti-anxiety (anxiolytic) effect, rats were dosed with MBDB (0.5-30 mg/kg, IP) or vehicle (saline) and 30-minutes later were tested in the open field for 30 minutes. This anxiety test capitalizes on a rodents' innate fear of wide-open spaces and propensity to hug the walls when placed into the open field. Therefore, a drug that increases the time spent in the center of the open field has anxiolytic activity and predicts utility for treating anxiety in humans.

Chain of 168 GPCRs (Homo sapiens, UniProt Q9UBY5) (Q9UBY5 whole entry): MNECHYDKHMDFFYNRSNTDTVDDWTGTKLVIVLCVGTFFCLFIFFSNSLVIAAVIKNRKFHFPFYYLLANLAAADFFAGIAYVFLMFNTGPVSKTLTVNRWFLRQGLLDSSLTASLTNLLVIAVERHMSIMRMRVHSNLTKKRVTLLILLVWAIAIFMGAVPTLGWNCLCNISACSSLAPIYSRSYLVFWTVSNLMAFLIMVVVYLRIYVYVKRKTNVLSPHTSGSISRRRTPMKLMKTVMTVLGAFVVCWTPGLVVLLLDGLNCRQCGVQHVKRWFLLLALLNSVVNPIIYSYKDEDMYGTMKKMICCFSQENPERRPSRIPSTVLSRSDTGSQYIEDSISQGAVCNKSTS

## CNC(C)C(=O)c1ccc2c(c1)OCO2 (centres unmarked) [methylone, 3,4-methylenedioxy-N-methylcathinone]
168 GPCRs [1]
  activity at 1 µM: ~19%
168 GPCRs [2]
  activity at 1 µM: -6.9%
168 GPCRs [3]
  activity at 1 µM: 6.7%
168 GPCRs [4]
  activity at 1 µM: ~8%
168 GPCRs [5]
  activity at 1 µM: -18.9%
168 GPCRs [6]; GPCR PTGER3, Antagonist mode, 10 uM
  activity at 10 µM: -5.7%
168 GPCRs [6]; PTGER3, Antagonist, 1 uM
  activity at 1 µM: 8.2%
Participants with PTSD; Day 3
  decrease in CAPS-5 score: 8.4 points
  decrease in MADRS score: 8.2 points
  reduction in Anxiety Sub-Scale of MADRS: 20%
Participants with PTSD; Day 10
  reduction in Anxiety Sub-Scale of MADRS: 43%
Participants with PTSD; Day 17
  reduction in Anxiety Sub-Scale of MADRS: 50%
Participants with PTSD; Day 24
  reduction in Anxiety Sub-Scale of MADRS: 57%
Participants with PTSD; Day 29
  reduction in Anxiety Sub-Scale of MADRS: 56%
Participants with PTSD; Day 36
  reduction in Anxiety Sub-Scale of MADRS: 66%
Participants with PTSD; Day 43
  reduction in Anxiety Sub-Scale of MADRS: 64%
Participants with PTSD; Day 64
  SDS Family Life score, mean (SD): 3.1 (3.45)
  SDS Mean Overall score, mean (SD): 3.1 (3.12)
  SDS Social Life score, mean (SD): 3.2 (3.39)
  SDS Work/School score, mean (SD): 3.3 (3.78)
  reduction in Anxiety Sub-Scale of MADRS: 66%
Participants with PTSD; end of study (6 weeks after the last dose)
  PSQI total score change: −4.0 points
Participants with PTSD; human, in vivo, oral, 4 weeks
  drug-related SAEs: No drug-related SAEs occurred
rats; methylone 15 or 30 mg/kg IP
  locomotor activity in OFT: significant increase in locomotor activity
rats
  time spent in the center of the open field: significantly increases the time spent in the center
rats; listed as Methylone
  time spent in the center of the open field: significantly increased center time
